≈ marks a conversion by molar mass, not a printed value.
Assays:
KB cells = assay: In Vitro KB Cell Cytotoxicity Assay (crystal violet); format: cell-based; details: Homo sapiens, 72 h, read-out: Cytotoxicity TD50 KB
Protocol: KB cells were cultivated in Eagles minimum essential medium supplemented with 10% calf serum and incubated at 37° C. in a humidified 5% CO2 atmosphere to prepare a cell stock. Cells were counted using a neubauer hemocytometer and seeded in 96 well plates at 100 μl of 3×10^4 cells/ml and cultured for one day. […] Control wells were identical except that test compound was absent. These were cultured for three days. […] Then stained with 100 μl of 0.05% crystal violet for 15 minutes, washed with water and dried. The wells were eluted with 100 μl of 0.05M NaH2 PO4 /ethanol (1:1 v/v) and read at OD540 on a multiscan spectrophotometer. TD50 values were calculated using the following formula.

L1210 cells = assay: cells; format: cell-based; details: Mus musculus, L1210, 72 h, read-out: Cytotoxicity TD50 L1210
Protocol: In vitro L1210 cell cytotoxicity assay was done by the method of microculture tetrazolium assay (Alley et al., Cancer Research, 48, 589-601 (1988)). L1210 cells were cultivated in RPMI 1640 medium supplemented with 10% fetal calf serum and […] of 2-mercaptoethanol at 37° C. in humidified 5% CO2 atmosphere to prepare a cell stock. Cells were counted using neubauer hemocytometer and seed in 96 well plates at 100 μl of 0.5×10^4 cells per ml. The test compounds were diluted and 100 μl of the solution was added in triplicate wells to give the final concentration of 10, 5, 1, 0.5 and 0.1 μg/ml. Control wells were identical except that the test compound was absent. These were cultured for three days. Results were assayed using the microculture tetrazolium assay briefly. 50 μl of MTT formazoan working solution (1:5 v/v in culture medium) was added to each well and cultures were incubated at 37° C. for 4 hrs. Culture plates were centrifuged at low speed for 5 minutes. All but 10-20 μl of culture medium supernatant was removed by slow aspiration and replaced by 50 μl of DMSO. The formazoan was dissolved by shaking on a mechanical shaker and read at OD540 on a multiscan spectrophotometer. TD50 values were calculated using the formula: [formula] to give interpolative values between two dilutions.

Sarcoma 180 = assay: In Vivo Antitumor Activity Against Sarcoma 180; details: for Mortality in 12 days: i.p., days 1, 5 and 9
Protocol: Sarcoma 180, 5×10^6 cells were inoculated by S.C. to male ICR mice (6 weeks old) on day 0. Drugs were administered on days 1, 5 and 9. Mice were killed and tumor weight was measured on day 12 after transplantation. The percentage inhibition of tumor growth was calculated from the mean tumor weight of the treated group compared with that of the control group. Number of mice used in each group was between 6 to 10.

[1] = Mus musculus, Sarcoma-180, ip, 288 h, read-out: % Inhibition of tumor growth

In the case of `CC(=O)OC[C@H]1CN2C(=O)C[C@@H]2O1` (racemic) [compound 4, (3RS, 5SR)-3-Acetoxymethyl-4-oxa-1-azabicyclo[3,2,0]heptan-7-one], the CC50 (KB cells) is reported as 0.4 µg/mL (≈ 2.16 µM), the CC50 (L1210 cells) is reported as 0.4 µg/mL (≈ 2.16 µM) and the “Mortality in 12 days” value (Sarcoma 180; 6.25 mg/kg/day) is reported as 0/7. For the same molecule, the “Mortality in 12 days” value (Sarcoma 180; 12.5 mg/kg/day) was 0/7, the inhibition in vivo at 6.25 mg/kg (Sarcoma 180; [1]) was 64% and the inhibition in vivo at 12.5 mg/kg (Sarcoma 180; [1]) was 70.7%.
In the case of `CCCCCC(=O)OC[C@H]1CN2C(=O)C[C@@H]2O1` (racemic) [compound 6, (3RS, 5SR)-3-Hexanoyloxymethyl-4-oxa-1-azabicyclo[3,2,0]heptan-7-one], the CC50 (KB cells) is reported as 0.3 µg/mL (≈ 1.24 µM), the CC50 (L1210 cells) is reported as 0.7 µg/mL (≈ 2.9 µM) and the “Mortality in 12 days” value (Sarcoma 180; 13 mg/kg/day) is reported as 0/6. The “Mortality in 12 days” value (Sarcoma 180; 25 mg/kg/day) was 0/6, the “Mortality in 12 days” value (Sarcoma 180; 50 mg/kg/day) was 0/6 and the inhibition in vivo at 13 mg/kg (Sarcoma 180; [1]) was 36.4%. It also gave an inhibition in vivo at 25 mg/kg (Sarcoma 180; [1]) of 61.4% and an inhibition in vivo at 50 mg/kg (Sarcoma 180; [1]) of 78%.
Molecule `O=C(CCl)OC[C@H]1CN2C(=O)C[C@@H]2O1` (racemic) [compound 13, (3RS, 5SR)-3-Chloroacetoxymethyl-4-oxa-1-azabicyclo[3,2,0]heptan-7-one] has a CC50 (KB cells) of 0.5 µg/mL (≈ 2.28 µM) and a CC50 (L1210 cells) of 0.28 µg/mL (≈ 1.27 µM).
In the case of `O=C1C[C@@H]2O[C@@H](CO)CN12` [compound 40, (3R,5S)-3-Hydroxymethyl-4-oxa-1-azabicyclo[3,2,0]heptan-7-one], the CC50 (KB cells) is reported as 0.03 µg/mL (≈ 0.21 µM), the CC50 (L1210 cells) is reported as 0.027 µg/mL (≈ 0.189 µM) and the “Mortality in 12 days” value (Sarcoma 180; 0.94 mg/kg/day) is reported as 0/7. The “Mortality in 12 days” value (Sarcoma 180; 1.88 mg/kg/day) was 0/7, the “Mortality in 12 days” value (Sarcoma 180; 3.75 mg/kg/day) was 0/7 and the “Mortality in 12 days” value (Sarcoma 180; 7.5 mg/kg/day) was 0/7. It also gave an inhibition in vivo at 0.94 mg/kg (Sarcoma 180; [1]) of 56.1%, an inhibition in vivo at 1.88 mg/kg (Sarcoma 180; [1]) of 63.7% and an inhibition in vivo at 3.75 mg/kg (Sarcoma 180; [1]) of 69.1%. It also gave an inhibition in vivo at 7.5 mg/kg (Sarcoma 180; [1]) of 77.4%.
`O=COC[C@H]1CN2C(=O)C[C@@H]2O1` (racemic) [compound 3, (3RS, 5SR)-3-Formyloxymethyl-4-oxa-1-azabicyclo[3,2,0]heptan-7-one] was tested, and the CC50 (KB cells) was 0.04 µg/mL (≈ 0.234 µM), the CC50 (L1210 cells) was 0.22 µg/mL (≈ 1.29 µM) and the “Mortality in 12 days” value (Sarcoma 180; 3.13 mg/kg/day) was 0/7. The “Mortality in 12 days” value (Sarcoma 180; 6.25 mg/kg/day) was 0/7, the inhibition in vivo at 3.13 mg/kg (Sarcoma 180; [1]) was 27.6% and the inhibition in vivo at 6.25 mg/kg (Sarcoma 180; [1]) was 55.3%.
Work on `CCCCCCCC(=O)OC[C@H]1CN2C(=O)C[C@@H]2O1` (racemic) [compound 7, (3RS, 5SR)-3-(n-Octanoyloxymethyl)-4-oxa-1-azabicyclo[3,2,0] heptan-7-one] yielded a CC50 (KB cells) of 0.1 µg/mL (≈ 0.371 µM) and a CC50 (L1210 cells) of 0.34 µg/mL (≈ 1.26 µM).
`CCC=CCC=CCC=CCCCCCCCC(=O)OC[C@H]1CN2C(=O)C[C@@H]2O1` (relative stereo) [compound 15] showed a CC50 (KB cells) of 0.41 µg/mL (≈ 1.02 µM) and a CC50 (L1210 cells) of 0.5 µg/mL (≈ 1.24 µM).
For `O=C1C[C@@H]2O[C@@H](C[S+]([O-])Cc3ccccc3)CN12` (mixture of isomers) [compound 42, (3RS,5SR)-3-Benzylsulfinylmethyl-4-oxa-1-azabicyclo[3,2,0]heptan-7-one], the CC50 (KB cells) was 0.1 µg/mL (≈ 0.377 µM), the CC50 (L1210 cells) was 0.3 µg/mL (≈ 1.13 µM) and the “Mortality in 12 days” value (Sarcoma 180; 50 mg/kg/day) was 0/7. It also gave an inhibition in vivo at 50 mg/kg (Sarcoma 180; [1]) of 64%.
Molecule `O=C1C[C@@H]2O[C@@H](C[S+]([O-])c3ccccc3)CN12` (mixture of isomers) [compound 45, (3RS, 5SR)-3-Phenylsulfinylmethyl-4-oxa-1-azabicyclo [3,2,0]heptan-7-one] has a CC50 (KB cells) of 0.3 µg/mL (≈ 1.19 µM) and a CC50 (L1210 cells) of 0.26 µg/mL (≈ 1.03 µM).
For `C#CC(=O)OC[C@H]1CN2C(=O)C[C@@H]2O1` (racemic) [compound 16, (3RS, 5SR)-3-Propynoyloxymethyl-4-oxa-1-azabicyclo[3,2,0]heptan-7-one], the CC50 (KB cells) was 0.07 µg/mL (≈ 0.359 µM), the CC50 (L1210 cells) was 0.04 µg/mL (≈ 0.205 µM) and the “Mortality in 12 days” value (Sarcoma 180; 1.56 mg/kg/day) was 0/7. For the same molecule, the “Mortality in 12 days” value (Sarcoma 180; 3.13 mg/kg/day) was 0/7, the inhibition in vivo at 1.56 mg/kg (Sarcoma 180; [1]) was 45.9% and the inhibition in vivo at 3.13 mg/kg (Sarcoma 180; [1]) was 53%.
Molecule `CCCCCCCCCC(=O)OC[C@H]1CN2C(=O)C[C@@H]2O1` (racemic) [compound 8, (3RS, 5SR)-3-Decanoyloxymethyl-4-oxa-1-azabicyclo[3,2,0]heptan-7-one] has a CC50 (KB cells) of 0.3 µg/mL (≈ 1.01 µM) and a CC50 (L1210 cells) of 0.37 µg/mL (≈ 1.24 µM).

From patent publication US5561126A, “4-oxa-1-azabicyclo [3,2,0] heptan-7-one derivatives as antitumor agents” (Taiho Pharmaceutical Co., Ltd., priority 1992, dated 1996)
